How the values were obtained:
[1] = tested on: PsAFB6 transcript abundance in pericarp; assay: Pea split-pericarp assay, hormone applied to deseeded pericarps, PsAFB6 transcript abundance by qRT-PCR; type: in vivo, Pisum sativum; conditions: deseeded 2 DAA pericarps, 50 μM hormone
Description: (§1) To examine the hormonal regulation of pericarp AFB mRNA levels, the pea split-pericarp assay was used (Ozga et al., 1992). Fruit at 2 DAA were split along the dorsal suture. Seeds were removed and pericarps were left for 12 hours prior to hormone application to reduce residual seed effects. […] For split-pod, no seed controls (SPNS), 30 μL of 0.1% aqueous Tween 80 was applied. For split-pod controls (SP), seeds were not removed after the dorsal suture was opened, but 30 μL of 0.1% aqueous Tween 80 was applied 12 hours after pericarp splitting. As a further control for the split-pericarp procedure, intact pods were also harvested at the appropriate times. All fruit subjected to split-pericarp treatments were covered with plastic to maintain humidity, and all manipulations were carried out while pericarps remained on the plant. Intact controls were harvested at the 0 hour and 12 hour treatment timing, while all split-pericarp treatments were harvested at 12, 14, 20, and 24 hours after pericarp splitting (0, 2, 8, and 12 hours after hormone treatment).
(§2) All transcript quantification was performed on a StepOnePlus sequence detector (Applied Biosystems). Reverse transcription and quantification was performed using TaqMan One-Step RT-PCR Master Mix (Applied Biosystems; final concentration 1×) and 200 ng of DNAse treated total RNA (final concentration 8 ng μL^−1) in duplicate in a final volume of 25 μL per well. The final concentration of forward and reverse primers was 300 nM each, and the final concentration of probe was 100 nM. Reverse transcription was carried out for 30 minutes at 48° C. DNA polymerase antibody was denatured at 95° C. for 10 minutes. Quantification was carried out for 40 cycles of the following program: denaturation at 95° C. for 15 seconds, primer annealing and extension at 60° C. for 1 minute. Probes were labelled at the 5′ end with FAM (6-carboxyfluorescein) and at the 3′ end with the MGB quencher (Applied Biosystems).
(§3) Relative transcript levels were calculated using the ΔCt method (Livak and Schmittgen, 2001) using the following formula, where X is an arbitrary value equal to or greater than the highest assayed Ct value and E is the reaction efficiency for the amplicon in question: Transcript abundance=(1+E)^X−Ct) (1)

deseeded pea pericarps [2] = conditions: hormone applied to deseeded pericarps, split-pericarp assay; literature (Reinecke et al. 1995, 1999; Ozga and Reinecke 1999; Johnstone et al. 2005); cited from earlier work
deseeded pea pericarps [3] = assay: Deseeded pea pericarp growth / fruit abortion after hormone application (split-pericarp); type: in vivo, Pisum sativum; conditions: hormone applied to deseeded ovaries
[4] = tested on: PsAFB2 transcript abundance in pericarp; assay: Pea split-pericarp assay, hormone applied to deseeded pericarps, PsAFB2 transcript abundance by qRT-PCR; type: in vivo, Pisum sativum; conditions: deseeded 2 DAA pericarps, 50 μM hormone applied 12 h after deseeding, 2, 8 and 12 h after application
Description: as §1
as §2, with “DNA polymerase antibody was denatured at 95° C. for 10 minutes.” left out, “Probes were labelled at the 5′ end with FAM (6-carboxyfluorescein) and at the 3′ end with the MGB quencher (Applied Biosystems).” left out
as §3

[5] = throughout the time course (2 to 12 h after application)

## O=C(O)Cc1c[nH]c2cccc(Cl)c12 [4-Cl-IAA, 4-chloroindole-3-acetic acid]
[1]; 2 hours after application
  effect on pericarp PsAFB6 mRNA abundance: initially reduced
[1]; [5]
  effect on pericarp PsAFB6 mRNA abundance: reduced PsAFB6 mRNA abundance to levels similar to those found in SP controls
Deseeded pea pericarps [2]
  deseeded pericarp growth: stimulated pericarp growth
Deseeded pea pericarps [3]
  abortion of deseeded fruits: prevention of fruit abortion
[4]
  effect on steady-state PsAFB2 transcript abundance: did not significantly affect

## Cc1cccc2[nH]cc(CC(=O)O)c12 [4-Me-IAA]
Deseeded pea pericarps [2]
  deseeded pericarp growth: capable of stimulating the expansion of deseeded pericarps, but not to the same extent as 4-Cl-IAA

## C=C1C[C@]23C[C@@]1(O)CC[C@H]2[C@@]12CC[C@H](O)[C@@](C)(C(=O)O1)[C@H]2[C@@H]3C(=O)O [GA1]
Deseeded pea pericarps [2]
  deseeded pericarp growth: stimulate deseeded pericarp growth

## C=C1C[C@]23C[C@@]1(O)CC[C@H]2[C@@]12C=C[C@H](O)[C@@](C)(C(=O)O1)[C@H]2[C@@H]3C(=O)O [GA3]
[1]; [5]
  effect on pericarp PsAFB6 mRNA abundance: no effect
Deseeded pea pericarps [2]
  deseeded pericarp growth: stimulate deseeded pericarp growth
[4]
  effect on steady-state PsAFB2 transcript abundance: did not significantly affect

## O=C(O)Cc1c[nH]c2ccccc12 [IAA, indole-3-acetic acid]
[1]; 8 hours to 12 hours after application
  effect on pericarp PsAFB6 mRNA abundance: increased to that observed in the SPNS pericarps
Deseeded pea pericarps [2]
  deseeded pericarp growth: further decreases growth
Deseeded pea pericarps [3]
  abortion of deseeded fruits: nor does it prevent the abortion of deseeded fruits
[4]
  effect on steady-state PsAFB2 transcript abundance: did not significantly affect

Source: US9441237B2, “Auxin receptors” (THE GOVERNORS OF THE UNIVERSITY OF ALBERTA, priority 2010, dated 2016)
